Reference: ChEMBL document CHEMBL1140461, “Design and synthesis of thiazole-5-hydroxamic acids as novel histone deacetylase inhibitors” (Bioorg Med Chem Lett, 2007)

Experiments:
[1] = system: MCF7; test: Antiproliferative activity against human MCF7 cells; format: functional
[2] = biological target: Histone deacetylase; test: Inhibition of HDAC activity in HeLa cell nuclear extract by fluorescent assay; format: protein assay, Homo sapiens

| Structure (SMILES) | GI50 [1] [µM] | IC50 [2] [µM] |
| --- | --- | --- |
| O=C(NO)c1cnc(N2CCN(Cc3ccccc3)CC2)s1 | 4 | > 100 |
| O=C(/C=C/c1cnc(N2CCN(S(=O)(=O)c3ccc(F)cc3)CC2)s1)NO | 2.5 | 4.7 |
| Cc1ccc(S(=O)(=O)N2CCN(c3ncc(C(=O)NO)s3)CC2)cc1 | 0.35 | 0.09 |
| O=C(/C=C/c1cnc(N2CCN(S(=O)(=O)c3ccc(C(F)(F)F)cc3)CC2)s1)NO | 3 | 15 |
| O=C(NO)c1cnc(N2CCN(S(=O)(=O)c3ccc(-c4ccccc4)cc3)CC2)s1 | 1.8 | 0.2 |
| O=C(NO)c1cnc(N2CCN(S(=O)(=O)c3ccc([N+](=O)[O-])cc3)CC2)s1 | 10 | 0.4 |
| CC(=O)N1CCN(c2ncc(C(=O)NO)s2)CC1 | > 100 | 2.8 |
| O=C(NO)c1cnc(N2CCN(C(=O)c3ccccc3)CC2)s1 | 40 | 3.5 |
| O=C(/C=C/c1cnc(N2CCN(S(=O)(=O)c3ccc(OC(F)(F)F)cc3)CC2)s1)NO | 6 | 3.2 |
| O=C(/C=C/c1cnc(N2CCN(S(=O)(=O)c3ccc([N+](=O)[O-])cc3)CC2)s1)NO | 5 | 1.6 |
| COc1ccc(S(=O)(=O)N2CCN(c3ncc(/C=C/C(=O)NO)s3)CC2)cc1OC | 4 | 0.16 |
| O=C(NO)c1cnc(N2CCN(S(=O)(=O)c3ccc(C(F)(F)F)cc3)CC2)s1 | 4 | 2.6 |
| O=C(NO)c1cnc(N2CCN(S(=O)(=O)c3ccccc3)CC2)s1 | 10 | 0.57 |
| O=C(NO)c1cnc(N2CCN(S(=O)(=O)c3ccc(OC(F)(F)F)cc3)CC2)s1 | 4 | 1.2 |
| O=C(/C=C/c1cnc(N2CCN(S(=O)(=O)c3ccc(-c4ccccc4)cc3)CC2)s1)NO | 15 | 11 |
| Cc1ccc(S(=O)(=O)N2CCN(c3ncc(/C=C/C(=O)NO)s3)CC2)cc1 | 2 | 0.55 |

Other lines, results leading:

| GI50 [1] [µM] | IC50 [2] [µM] | Structure (SMILES) |
| --- | --- | --- |
| > 100 | > 100 | CN1CCN(c2ncc(C(=O)NO)s2)CC1 |
| 2 | 0.22 | O=C(NO)c1cnc(N2CCN(S(=O)(=O)c3ccc4ccccc4c3)CC2)s1 |
| 3 | 0.44 | O=C(/C=C/c1cnc(N2CCN(S(=O)(=O)c3ccccc3)CC2)s1)NO |
| 2 | 0.07 | COc1ccc(S(=O)(=O)N2CCN(c3ncc(C(=O)NO)s3)CC2)cc1OC |
| > 100 | > 100 | O=C(NO)c1cnc(N2CCN(CCc3ccccc3)CC2)s1 |
| 20 | 32 | O=C(NO)c1cnc(N2CCN(C(=O)Cc3ccccc3)CC2)s1 |
| 0.7 | 0.05 | O=C(/C=C/c1cnc(N2CCN(S(=O)(=O)c3ccc4ccccc4c3)CC2)s1)NO |
| 3.5 | 0.15 | O=C(NO)c1cnc(N2CCN(S(=O)(=O)c3ccc(F)cc3)CC2)s1 |
